# Changes are numbered by the printed parent chain.
# Legend:
# [1] = molecular target: T1, rat P2X2 (Rattus norvegicus, UniProt P49653); test: action potential recording from Drosophila taste neurons; confirmed by whole-cell voltage clamp in HEK […] cells at […]
# T1 construct: gene P2rx2; rat P2X2 with C-terminal mCherry fusion
# T1 sequence (P49653 1-472): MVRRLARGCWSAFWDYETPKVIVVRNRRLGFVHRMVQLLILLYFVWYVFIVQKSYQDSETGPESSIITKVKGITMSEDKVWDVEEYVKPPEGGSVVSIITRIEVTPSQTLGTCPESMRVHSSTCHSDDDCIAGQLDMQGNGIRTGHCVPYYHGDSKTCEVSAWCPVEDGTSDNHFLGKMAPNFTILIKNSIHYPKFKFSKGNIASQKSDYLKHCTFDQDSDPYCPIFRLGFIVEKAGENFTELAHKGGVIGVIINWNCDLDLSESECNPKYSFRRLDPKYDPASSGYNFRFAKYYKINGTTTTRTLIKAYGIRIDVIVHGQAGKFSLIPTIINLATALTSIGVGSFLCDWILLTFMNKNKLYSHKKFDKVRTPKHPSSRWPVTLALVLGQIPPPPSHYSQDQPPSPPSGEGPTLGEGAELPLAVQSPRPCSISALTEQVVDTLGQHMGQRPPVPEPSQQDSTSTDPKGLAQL
# [2] = molecular target: T2, rat P2X2 (Rattus norvegicus, UniProt P49653, T184I); test: action potential recording from Drosophila taste neurons, tested at […]; assay type: cell-based
# T2 construct: gene P2rx2; T184I rP2X2::GFP
# T2 sequence (P49653 1-472 T184I): T1 sequence (P49653 1-472) with T184I
# [3] = molecular target: T1, rat P2X2; test: action potential recording from Drosophila taste neurons, tested at […]; partial agonist; assay type: cell-based
# [4] = molecular target: T1, rat P2X2; test: action potential recording from Drosophila taste neurons expressing the receptor; also whole-cell voltage clamp in HEK […] cells
# [5] = molecular target: T2, rat P2X2; test: action potential recording from Drosophila taste neurons expressing the mutant
# [6] = molecular target: T3, human P2X2 (Homo sapiens, UniProt Q9UBL9); test: action potential recording from Drosophila taste neurons, […] ATP; assay type: cell-based
# T3 construct: gene P2RX2; human P2X2 variant A with C-terminal mCherry fusion tag
# T3 sequence (Q9UBL9 1-471): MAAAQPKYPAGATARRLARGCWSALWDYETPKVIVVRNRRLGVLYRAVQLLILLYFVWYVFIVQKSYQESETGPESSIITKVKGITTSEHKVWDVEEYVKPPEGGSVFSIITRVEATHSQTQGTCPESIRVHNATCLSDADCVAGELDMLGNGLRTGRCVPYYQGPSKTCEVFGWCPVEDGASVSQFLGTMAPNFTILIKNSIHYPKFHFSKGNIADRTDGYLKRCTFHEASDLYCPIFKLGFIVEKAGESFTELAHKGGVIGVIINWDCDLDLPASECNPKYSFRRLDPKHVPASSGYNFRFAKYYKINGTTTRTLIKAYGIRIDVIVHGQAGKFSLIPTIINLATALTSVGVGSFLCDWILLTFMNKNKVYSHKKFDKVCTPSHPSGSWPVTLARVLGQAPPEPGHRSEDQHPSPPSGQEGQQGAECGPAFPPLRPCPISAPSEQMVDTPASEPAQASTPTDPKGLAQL
# [7] = molecular target: T1, rat P2X2; test: action potential recording from Drosophila taste neurons, tested at […]; assay type: cell-based
structure (smiles),measurement,setting,value
Nc1nc(F)nc2c1ncn2[C@@H]1O[C@H](COP(=O)(O)OP(=O)(O)OP(=O)(O)O)[C@@H](O)[C@H]1O [2F-ATP],EC50,[1],17.2 µM
same,"action potential recording from Drosophila taste neurons, tested at 100 μM",[2],"flies expressing rat P2X2^T184I and found that ATPγS, ATPαS and 2F-ATP elicited responses similar to ATP"
Nc1nc(O)nc2c1ncn2[C@@H]1O[C@H](COP(=O)(O)OP(=O)(O)OP(=O)(O)O)[C@@H](O)[C@H]1O [2OH-ATP],"action potential recording from Drosophila taste neurons, tested at 100 μM; part",[3],several modifications at this position show full (2F-ATP) or partial (2-hydroxy-ATP) agonist activity
Nc1ncnc2c1ncn2[C@@H]1O[C@H](COP(=O)(O)OP(=O)(O)OP(=O)(O)O)[C@@H](O)[C@H]1O [ATP],EC50,[4],8.7 µM
same,EC50,[5],145 µM
same,"action potential recording from Drosophila taste neurons, 10 μM ATP",[6],The human P2X2 ortholog was also tested in Drosophila taste neurons ... and it responded to ATP in a similar fashion
Nc1ncnc2c1ncn2[C@@H]1O[C@H](COP(O)(=S)OP(=O)(O)OP(=O)(O)O)[C@@H](O)[C@H]1O (stereo partly drawn) [ATPαS],"action potential recording from Drosophila taste neurons, tested at 100 μM",[7],"Several adenosine nucleotides gave responses as large as ATP, including the previously identified agonists ATPγS and ATPαS"
Nc1ncnc2c1ncn2[C@@H]1O[C@H](CO[P@](=O)(O)O[P@](=O)(O)O[P@@](=O)(O)S)[C@@H](O)[C@H]1O [ATPγS],"action potential recording from Drosophila taste neurons, tested at 100 μM",[7],ATPγS and ATPαS have previously been shown to act as agonists ... both were also effective agonists in the Drosophila system
same,"action potential recording from Drosophila taste neurons, tested at 100 μM",[2],"flies expressing rat P2X2^T184I and found that ATPγS, ATPαS and 2F-ATP elicited responses similar to ATP"

# Reference: article PMC7237442, “Drosophila taste neurons as an agonist-screening platform for P2X receptors” (Scientific Reports, 2020)
